Laboratory results published in EPA's ToxValDB 9.5 (doi:10.2903/j.efsa.2006.82r).
In brackets after ≈: the same amount, converted by molar mass.

What was measured:
[1] = test system: Tagia sp.
[2] = test system: Apis mellifera; details: acute; duration: 48 hours; oral; unspecified; mortality
[3] = test system: Bird; details: acute; oral; unspecified; mortality
[4] = test system: Colinus virginianus; details: for LD50: acute, oral, mortality
[5] = test system: Trichogramma cacoeciae; details: not reported; mortality
[6] = test system: Anas platyrhynchos; details: for LD50: oral, mortality
[7] = test system: Canidae; details: oral, Dog Other, organ weight
[8] = test system: Oncorhynchus mykiss
[9] = test system: Rattus norvegicus

With COc1ccc(C(=CC(=O)N2CCOCC2)c2ccc(Cl)cc2)cc1OC [Dimethomorph] the LC50 ([1]; acute, duration: 14 days, mortality) was greater than 1000 mg/kg, the NOEC ([1]; chronic/long-term, duration: 8 weeks, reproduction) was no less than 120 mg/kg and the LD50 [2] was greater than 32.4 µg/piece. For the same compound, the LD50 [3] was 3900 mg/kg, the LD50 ([4]; diet) was greater than 728 mg/kg-day and the LD50 [4] was greater than 2000 mg/kg. The NOEL ([4]; reproduction developmental) was 58.4 mg/kg-day, the LEL [5] was 115 g/ha and the LD50 ([6]; acute, unspecified) was greater than 2000 mg/kg. It also gave an NOEL ([6]; reproductive) of 78.4 mg/kg-day, an LD50 ([6]; short-term, feed) greater than 938 mg/kg-day and an NOAEL ([7]; chronic, duration: 1 years, M/F) of 4.9 mg/kg-day. For the same compound, the NOAEL ([7]; subchronic, duration: 90 days) was 15 mg/kg-day, the LC50 ([8]; acute, duration: 96 hours, mortality) was 3.4 mg/L (≈ 8.77 µM) and the NOEC ([8]; chronic/long-term, duration: 96 days, development) was 0.056 mg/L. For the same compound, the NOAEL ([9]; developmental, development) was 60 mg/kg-day and the NOAEL ([9]; subchronic, duration: 90 days, oral) was 16 mg/kg-day.
